Experimental data taken from BindingDB's records for patent US11547697 (Millennium Pharmaceuticals, 2023).

Key:
Test in all cases: Inhibition Assay of PI3K
[1] = biological target: T1, Phosphatidylinositol 4,5-bisphosphate 3-kinase catalytic subunit delta isoform (Homo sapiens, UniProt O00329)
T1 sequence (O00329 whole entry): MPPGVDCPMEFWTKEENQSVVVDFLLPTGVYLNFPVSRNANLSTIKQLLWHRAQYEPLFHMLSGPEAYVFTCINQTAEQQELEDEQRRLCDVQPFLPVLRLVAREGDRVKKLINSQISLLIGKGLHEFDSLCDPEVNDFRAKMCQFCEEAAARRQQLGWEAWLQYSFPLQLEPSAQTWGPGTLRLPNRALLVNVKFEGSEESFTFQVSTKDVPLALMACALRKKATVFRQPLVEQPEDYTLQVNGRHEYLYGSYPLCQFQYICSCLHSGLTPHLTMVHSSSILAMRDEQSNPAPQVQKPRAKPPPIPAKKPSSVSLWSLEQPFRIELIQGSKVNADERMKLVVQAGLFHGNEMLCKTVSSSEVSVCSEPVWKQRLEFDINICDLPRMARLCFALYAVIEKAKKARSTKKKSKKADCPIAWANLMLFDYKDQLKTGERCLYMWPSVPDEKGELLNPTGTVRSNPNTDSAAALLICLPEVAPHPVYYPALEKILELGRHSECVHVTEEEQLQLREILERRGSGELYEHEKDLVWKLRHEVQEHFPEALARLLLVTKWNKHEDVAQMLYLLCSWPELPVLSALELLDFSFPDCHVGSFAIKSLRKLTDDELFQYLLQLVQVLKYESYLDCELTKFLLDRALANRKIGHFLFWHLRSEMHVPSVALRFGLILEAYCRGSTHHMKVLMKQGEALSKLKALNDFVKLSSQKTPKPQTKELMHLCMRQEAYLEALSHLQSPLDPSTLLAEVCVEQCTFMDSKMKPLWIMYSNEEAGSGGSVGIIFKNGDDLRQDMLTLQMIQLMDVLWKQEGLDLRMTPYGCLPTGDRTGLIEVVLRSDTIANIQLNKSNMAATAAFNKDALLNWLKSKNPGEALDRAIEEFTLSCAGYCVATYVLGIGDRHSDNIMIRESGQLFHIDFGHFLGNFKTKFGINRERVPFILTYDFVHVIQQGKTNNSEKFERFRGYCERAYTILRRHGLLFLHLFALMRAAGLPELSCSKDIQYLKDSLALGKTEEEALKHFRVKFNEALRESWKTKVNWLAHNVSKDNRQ

[2] = biological target: Phosphatidylinositol 4,5-bisphosphate 3-kinase catalytic subunit beta isoform (Homo sapiens, UniProt P42338)
Phosphatidylinositol 4,5-bisphosphate 3-kinase catalytic subunit beta isoform, sequence (P42338 whole entry, canonical isoform): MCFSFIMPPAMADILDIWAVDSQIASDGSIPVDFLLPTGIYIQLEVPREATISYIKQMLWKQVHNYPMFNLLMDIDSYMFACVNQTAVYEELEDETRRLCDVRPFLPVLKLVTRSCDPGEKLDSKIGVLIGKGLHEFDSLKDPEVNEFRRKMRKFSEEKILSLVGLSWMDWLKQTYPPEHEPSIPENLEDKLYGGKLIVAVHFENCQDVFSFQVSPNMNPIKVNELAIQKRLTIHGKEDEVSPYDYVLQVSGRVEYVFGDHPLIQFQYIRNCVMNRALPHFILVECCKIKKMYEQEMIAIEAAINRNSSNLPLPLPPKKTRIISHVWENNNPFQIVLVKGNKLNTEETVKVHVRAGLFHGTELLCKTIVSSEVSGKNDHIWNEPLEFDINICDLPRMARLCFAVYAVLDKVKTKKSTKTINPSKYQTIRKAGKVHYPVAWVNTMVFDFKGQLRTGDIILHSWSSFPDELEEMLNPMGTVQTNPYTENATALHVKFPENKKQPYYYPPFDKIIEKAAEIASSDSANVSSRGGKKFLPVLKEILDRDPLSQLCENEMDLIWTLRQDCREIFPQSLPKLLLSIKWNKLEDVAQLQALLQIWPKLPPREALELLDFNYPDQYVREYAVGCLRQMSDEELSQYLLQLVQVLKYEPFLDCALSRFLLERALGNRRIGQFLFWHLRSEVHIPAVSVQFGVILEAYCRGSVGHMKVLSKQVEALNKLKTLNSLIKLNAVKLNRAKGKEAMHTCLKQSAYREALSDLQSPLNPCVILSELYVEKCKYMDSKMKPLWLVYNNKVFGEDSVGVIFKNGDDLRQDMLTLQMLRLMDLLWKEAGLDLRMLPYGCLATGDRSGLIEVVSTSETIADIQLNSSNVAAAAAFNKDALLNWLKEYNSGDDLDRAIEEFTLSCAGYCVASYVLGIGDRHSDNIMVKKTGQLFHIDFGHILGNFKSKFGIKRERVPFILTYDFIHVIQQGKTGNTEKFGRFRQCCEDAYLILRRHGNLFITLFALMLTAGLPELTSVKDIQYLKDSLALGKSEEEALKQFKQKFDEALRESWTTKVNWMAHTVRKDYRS

[3] = biological target: Phosphatidylinositol 4,5-bisphosphate 3-kinase catalytic subunit gamma isoform (Homo sapiens, UniProt P48736)
Phosphatidylinositol 4,5-bisphosphate 3-kinase catalytic subunit gamma isoform, sequence (P48736 whole entry, canonical isoform): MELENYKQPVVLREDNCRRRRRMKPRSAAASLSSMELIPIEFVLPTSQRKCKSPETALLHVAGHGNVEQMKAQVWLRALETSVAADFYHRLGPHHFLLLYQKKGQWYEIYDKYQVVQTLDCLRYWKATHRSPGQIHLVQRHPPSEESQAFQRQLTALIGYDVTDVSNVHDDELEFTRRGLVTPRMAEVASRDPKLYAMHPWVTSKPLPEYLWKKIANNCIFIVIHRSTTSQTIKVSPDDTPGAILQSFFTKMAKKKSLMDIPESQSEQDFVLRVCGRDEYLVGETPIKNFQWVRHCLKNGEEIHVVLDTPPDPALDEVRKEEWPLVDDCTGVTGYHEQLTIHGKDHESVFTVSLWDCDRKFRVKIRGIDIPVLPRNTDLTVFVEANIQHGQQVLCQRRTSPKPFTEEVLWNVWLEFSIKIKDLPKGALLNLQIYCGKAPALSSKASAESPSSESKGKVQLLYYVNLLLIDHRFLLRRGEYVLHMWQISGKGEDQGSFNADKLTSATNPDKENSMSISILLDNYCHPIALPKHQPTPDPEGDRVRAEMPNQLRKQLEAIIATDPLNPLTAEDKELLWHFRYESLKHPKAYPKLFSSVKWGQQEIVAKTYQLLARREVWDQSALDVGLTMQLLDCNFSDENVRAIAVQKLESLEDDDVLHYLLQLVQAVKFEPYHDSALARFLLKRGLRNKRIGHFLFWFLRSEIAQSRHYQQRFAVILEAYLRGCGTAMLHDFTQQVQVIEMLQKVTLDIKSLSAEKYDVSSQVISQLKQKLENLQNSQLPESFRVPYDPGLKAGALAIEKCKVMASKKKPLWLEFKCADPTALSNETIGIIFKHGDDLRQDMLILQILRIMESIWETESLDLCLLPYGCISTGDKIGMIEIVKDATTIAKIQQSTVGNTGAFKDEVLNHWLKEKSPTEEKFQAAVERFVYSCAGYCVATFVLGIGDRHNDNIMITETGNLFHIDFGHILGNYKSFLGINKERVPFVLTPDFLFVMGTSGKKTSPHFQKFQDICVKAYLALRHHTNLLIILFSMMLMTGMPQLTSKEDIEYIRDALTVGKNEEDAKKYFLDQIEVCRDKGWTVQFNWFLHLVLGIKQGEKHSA

IC50 [1] [µM] | IC50 [2] [µM] | IC50 [3] [µM] | SMILES
> 10 | > 10 | > 10 | Nc1nc2cc(-c3ccc4ncn(C5CCCC5)c(=O)c4c3)ccc2o1 [US11547697, Compound 256]
> 10 | > 10 | > 10 | NC(=O)[C@@H]1CCCN1c1cnc2ccc(-c3ccc4oc(N)nc4c3)cc2n1 [US11547697, Compound 257]
> 10 | > 10 | > 10 | CN1CCN(CCn2cnc3ccc(-c4ccc5oc(N)nc5c4)cc3c2=O)CC1 [US11547697, Compound 280]
 | > 10 | > 10 | CCN(CC)CCCn1cnc2ccc(-c3ccc4oc(N)nc4c3)cc2c1=O [US11547697, Compound 281]
> 10 | > 10 | > 10 | Nc1nc2cc(-c3ccc4ncn(CCCN5CCOCC5)c(=O)c4c3)ccc2o1 [US11547697, Compound 290]
> 10 | > 10 | > 10 | CN1CCN(CCCn2cnc3ccc(-c4ccc5oc(N)nc5c4)cc3c2=O)CC1 [US11547697, Compound 291]
> 10 | > 10 | > 10 | CN(C)CCn1cnc2ccc(-c3ccc4oc(N)nc4c3)cc2c1=O [US11547697, Compound 292]
 |  | > 10 | Nc1nc2cc(-c3ccc4ncc(C(=O)NCCN5CCCC5)n4c3)ccc2o1 [US11547697, Compound 296]
> 10 |  | > 10 | Nc1nc2cc(-c3ccc4nnc(-c5cccnc5)n4c3)ccc2o1 [US11547697, Compound 300]
> 10 |  | > 10 | Nc1nc2ccc(-c3ccc4nnc(-c5cccnc5)n4c3)cc2o1 [US11547697, Compound 301]
 | > 10 | > 10 | CN1CCN(C2CN(C(=O)c3cnc4ccc(-c5ccc6oc(N)nc6c5)cn34)C2)CC1 [US11547697, Compound 303]
> 10 |  | > 10 | C[C@H]1CN(c2cnc3ccc(-c4ccc5sc(N)nc5c4)cc3n2)CCN1 [US11547697, Compound 307]
> 10 |  | > 10 | COC(=O)N1CCC(n2ncc3c(N4CCOCC4)nc(-c4ccc5oc(N)nc5c4)nc32)CC1 [US11547697, Compound 330]
 |  | > 10 | CC1(C)CN(c2cnc3ccc(-c4ccc5oc(N)nc5c4)cc3n2)CCN1 [US11547697, Compound 336]
> 10 |  | > 10 | Cc1cc2oc(N)nc2cc1-c1ccc2ncc(N3CCN[C@@H](C)C3)nc2c1 [US11547697, Compound 351]
> 10 |  | > 10 | Nc1nc2cc(-c3ccc4ncc(N5CC(N6CCOCC6)C5)nc4c3)c(Cl)cc2o1 [US11547697, Compound 371]
 |  | > 10 | Cc1c(-c2ccc3oc(N)nc3c2)ccc2ncc(N3CCN[C@@H](C)C3)nc12 [US11547697, Compound 374]
 |  | > 10 | CN1CCN([C@@H]2CCN(c3cnc4ccc(-c5ccc6oc(N)nc6c5)cc4n3)C2)CC1 [US11547697, Compound 379]
> 10 |  | > 10 | CN1CCC(c2cnc3ccc(-c4ccc5oc(N)nc5c4)cc3n2)CC1 [US11547697, Compound 385]
> 10 |  | > 10 | CNc1nc2cc(-c3ccc4ncc(C(=O)N5CCOCC5)n4c3)ccc2o1 [US11547697, Compound 406]
 |  | > 10 | CN1CCC(n2cnc3ccc(-c4cnc(Cl)c(NS(C)(=O)=O)c4)cc3c2=O)CC1 [US11547697, Compound 526]
> 10 |  | > 10 | CN1CC(n2cnc3ccc(-c4ccc5oc(N)nc5c4)cc3c2=O)C1 [US11547697, Compound 528]

More lines, now with the values behind:

SMILES | IC50 [1] [µM] | IC50 [2] [µM] | IC50 [3] [µM]
Nc1nc2cc(-c3ccc4ncn(C5CCOCC5)c4c3)ccc2o1 [US11547697, Compound 48] | > 10 | > 10 | > 10
Nc1nc2cc(-c3ccc4ncc(N5CCOCC5)n4c3)ccc2o1 [US11547697, Compound 53] | > 10 | > 10 | > 10
Nc1nc2cc(-c3ccc4ncn(C5CCOCC5)c(=O)c4c3)ccc2o1 [US11547697, Compound 55] | > 10 |  | > 10
Nc1nc2ccc(-c3ccc4ncn(C5CCOCC5)c(=O)c4c3)cc2o1 [US11547697, Compound 63] | > 10 | > 10 | > 10
CC(=O)N1CCC(n2cnc3ccc(-c4ccc5oc(N)nc5c4)cc3c2=O)CC1 [US11547697, Compound 66] | > 10 |  | > 10
CCN1CCC(n2cnc3ccc(-c4ccc5oc(N)nc5c4)cc3c2=O)CC1 [US11547697, Compound 73] | > 10 |  | > 10
CN1CCN(c2nc3cc(-c4ccc5oc(N)nc5c4)ccc3c(=O)n2C)CC1 [US11547697, Compound 79] | > 10 | > 10 | > 10
Cn1c(N2CCOCC2)nc2cc(-c3ccc4oc(N)nc4c3)ccc2c1=O [US11547697, Compound 80] | > 10 | > 10 | > 10
Nc1nc2cc(-c3ccc4ncc(C(=O)N5CCOCC5)cc4c3)ccc2o1 [US11547697, Compound 97] | > 10 | > 10 | > 10
Nc1nc2cc(-c3ccc4ncc(C(=O)N5CCNCC5)n4c3)ccc2o1 [US11547697, Compound 111] | > 10 |  | > 10
CN1CCN(C(=O)c2cnc3cnc(-c4ccc5oc(N)nc5c4)cn23)CC1 [US11547697, Compound 123] | > 10 | > 10 | > 10
CN1CCCN(C(=O)c2cnc3ccc(-c4ccc5oc(N)nc5c4)cn23)CC1 [US11547697, Compound 140] | > 10 |  | > 10
CC1CN(C(=O)c2cnc3ccc(-c4ccc5oc(N)nc5c4)cn23)CC(C)N1 (stereo unspecified) [US11547697, Compound 142] | > 10 | > 10 | > 10
CN1CCN(C(=O)c2cnc3ccc(-c4ccc5sc(N)nc5c4)cn23)CC1 [US11547697, Compound 144] | > 10 |  | > 10
CN1CCN(C(=O)c2cnc3ccc(-c4ccc5nc(N)sc5c4)cn23)CC1 [US11547697, Compound 146] | > 10 |  | > 10
Nc1nc2cc(-c3ccc4ncc(-c5ccnc(N6CCOCC6)c5)nc4c3)ccc2o1 [US11547697, Compound 150] | > 10 | > 10 | > 10
CN1CCN(C(=O)c2cnc3ccc(-c4ccc5oc(N)nc5c4)cc3n2)CC1 [US11547697, Compound 157] | > 10 | > 10 | > 10
Nc1nc2cc(-c3ccc4ncc(C(=O)N5CCOCC5)nc4c3)ccc2o1 [US11547697, Compound 158] | > 10 | > 10 | > 10
CC(C)N1CCN(C(=O)c2cnc3ccc(-c4ccc5oc(N)nc5c4)cn23)CC1 [US11547697, Compound 160] | > 10 |  | > 10
Nc1nc2cc(-c3ccc4ncc(-c5ccc(N6CCOCC6)nc5)nc4c3)ccc2o1 [US11547697, Compound 167] | > 10 | > 10 | > 10
Nc1nc2cc(-c3ccc4ncc(-c5ccccc5)nc4c3)ccc2o1 [US11547697, Compound 180] | > 10 | > 10 | > 10
Cc1ncccc1-c1cnc2ccc(-c3ccc4oc(N)nc4c3)cc2n1 [US11547697, Compound 185] | > 10 | > 10 | > 10
Nc1nc2cc(-c3ccc4ncc(C(=O)N5CCC(N)CC5)n4c3)ccc2o1 [US11547697, Compound 204] | > 10 |  | > 10
Nc1nc2cc(-c3ccc4ncn(C5CCC5)c(=O)c4c3)ccc2o1 [US11547697, Compound 205] | > 10 | > 10 | > 10
Nc1ncc(-c2cnc3ccc(-c4ccc5oc(N)nc5c4)cc3n2)cn1 [US11547697, Compound 210] | > 10 | > 10 | > 10
CCN(CC)CCn1cnc2ccc(-c3ccc4oc(N)nc4c3)cc2c1=O [US11547697, Compound 224] | > 10 | > 10 | > 10
Nc1nc2cc(-c3ccc4ncc(N5CC(N6CCN(CC7CC7)CC6)C5)nc4c3)ccc2o1 [US11547697, Compound 335] |  |  | > 10
C[C@H]1CN(C2CN(c3cnc4ccc(-c5ccc6oc(N)nc6c5)cc4n3)C2)CCN1 [US11547697, Compound 350] |  |  | > 10
